Values joined by “and” are separate entries in the source; they are usually repeats but may differ in a detail not shown here. Equal entries are not always repeated. Toxic doses and inconclusive results are not listed. Numbered stars: 1 amine (or outer) side, 2 acyl side, 3 side chain; on linkers, the order of the positions; unused ones are H or OH. Bridge positions count the residues as written; N and C are the ends. Square brackets hold non-standard residues; d marks the D form. Peptide text beside a SMILES is read from it. I, II: the chains in the order shown. Actinocin(9to1) = Cc1c2oc3c(C)ccc(C(=O)[*:1])c3nc-2c(C(=O)[*:2])c(N)c1=O; NMeV = CN[CH](C(=O)O)C(C)C; Pip = O=C(O)[CH]1CCCCN1; Sar = CNCC(=O)O

In the assay the test system is L1210 leukemia ip in BDF1 mice, survival T/C. Put plainly: NCI In Vivo Anticancer Drug Screen. Data for tumor model L1210 Leukemia (intraperitoneal) in B6D2F1 (BDF1) mice. To be noted: endpoint: mean survival time, higher = longer survival. A digest of the protocol: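 Tumor was transplanted into mice, which were then dosed with test compound or vehicle alone. Survival was recorded for each group, and the treated figure was expressed relative to the control figure.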

Setting [1] is: dose: 100.0 mg/kg/injection, schedule: Q01DX001 (ip), vehicle: saline.
The mark [2] stands for this setting: dose: 200.0 mg/kg/injection, schedule: Q01DX001 (ip), vehicle: saline.
The mark [3] stands for this setting: dose: 400.0 mg/kg/injection, schedule: Q01DX001 (ip), vehicle: saline.
[4] abbreviates: dose: 100.0 mg/kg/injection, schedule: Q04DX003 (ip), vehicle: Klucel (hydroxypropylcellulose) (HPC).
[5] abbreviates: dose: 200.0 mg/kg/injection, schedule: Q04DX003 (ip), vehicle: Klucel (hydroxypropylcellulose) (HPC).
Setting [6] is: dose: 400.0 mg/kg/injection, schedule: Q04DX003 (ip), vehicle: Klucel (hydroxypropylcellulose) (HPC).
Where [7] appears, read: dose: 100.0 mg/kg/injection, schedule: Q01DX009 (ip), vehicle: saline with Tween-80.
[8] abbreviates: dose: 200.0 mg/kg/injection, schedule: Q01DX009 (ip), vehicle: saline with Tween-80.
Setting [9] is: dose: 400.0 mg/kg/injection, schedule: Q01DX009 (ip), vehicle: saline with Tween-80.
Where [10] appears, read: dose: 100.0 mg/kg/injection, schedule: Q01DX009 (ip), vehicle: Klucel (hydroxypropylcellulose) (HPC).
[11] abbreviates: dose: 200.0 mg/kg/injection, schedule: Q01DX009 (ip), vehicle: Klucel (hydroxypropylcellulose) (HPC).
Where [12] appears, read: dose: 400.0 mg/kg/injection, schedule: Q01DX009 (ip), vehicle: Klucel (hydroxypropylcellulose) (HPC).
Where [13] appears, read: dose: 100.0 mg/kg/injection, schedule: Q04DX003 (ip), vehicle: saline.

Consider `COc1cc(Cc2cnc(N)nc2N)cc(OC)c1OC`, for which the T/C runs as follows: (dose: 50.0 mg/kg/injection, schedule: Q01DX001 (ip), vehicle: saline) 101 % of control; under setting [1], 92 % of control; under setting [2], 100 % of control; under setting [3], 97 % of control.

In the case of `Cc1ccc(NC(=O)OC/C=C/c2ccccc2)c([N+](=O)[O-])c1`, the T/C is 90 % of control under setting [4], 93 % of control under setting [5] and 93 % of control under setting [6].

In the case of `S=c1n(CN2CCCCC2)c2cncnc2n1CN1CCCCC1`, the T/C by setting is: (dose: 75.0 mg/kg/injection, schedule: Q01DX Z (ip), vehicle: carboxymethylcellulose (CMC)) 98 % of control; (dose: 100.0 mg/kg/injection, schedule: Q01DX Z (ip), vehicle: carboxymethylcellulose (CMC)) 109 % of control; (dose: 125.0 mg/kg/injection, schedule: Q01DX Z (ip), vehicle: carboxymethylcellulose (CMC)) 95 % of control.

With `CSc1ncnc2c1ncn2CO`, the T/C (dose: 30.0 mg/kg/injection, schedule: Q01DX009 (ip), vehicle: Klucel (hydroxypropylcellulose) (HPC)) was 113 % of control; the T/C (dose: 46.0 mg/kg/injection, schedule: Q01DX009 (ip), vehicle: carboxymethylcellulose (CMC)) was 122 % of control; the T/C (dose: 55.0 mg/kg/injection, schedule: Q01DX009 (ip), vehicle: saline) is 119 % of control; the T/C (dose: 60.0 mg/kg/injection, schedule: Q01DX009 (ip), vehicle: Klucel (hydroxypropylcellulose) (HPC)) is 116 % of control; the T/C (dose: 110.0 mg/kg/injection, schedule: Q01DX001 (ip), vehicle: saline) is 115 % of control; the T/C (dose: 120.0 mg/kg/injection, schedule: Q01DX009 (ip), vehicle: Klucel (hydroxypropylcellulose) (HPC)) is 109 % of control. Besides, the T/C runs as follows: (dose: 125.0 mg/kg/injection, schedule: Q01DX009 (ip), vehicle: saline) 164 % of control; (dose: 165.0 mg/kg/injection, schedule: Q01DX001 (ip), vehicle: saline) 120 % of control; (dose: 250.0 mg/kg/injection, schedule: Q01DX001 (ip), vehicle: saline) 120 % of control.

For the compound `O=C1NC(=O)C2CC(Br)C(Br)CC12` (stereo not given), the T/C was 100 % of control (dose: 2.5 mg/kg/injection, schedule: Q01DX009 (ip), vehicle: Klucel (hydroxypropylcellulose) (HPC)); 98 % of control (dose: 2.5 mg/kg/injection, schedule: Q04DX003 (ip), vehicle: Klucel (hydroxypropylcellulose) (HPC)); 100 % of control (dose: 5.0 mg/kg/injection, schedule: Q01DX009 (ip), vehicle: Klucel (hydroxypropylcellulose) (HPC)); 100 % of control (dose: 5.0 mg/kg/injection, schedule: Q04DX003 (ip), vehicle: Klucel (hydroxypropylcellulose) (HPC)); 100 % of control (dose: 10.0 mg/kg/injection, schedule: Q01DX009 (ip), vehicle: Klucel (hydroxypropylcellulose) (HPC)); 98 % of control and 100 % of control (dose: 10.0 mg/kg/injection, schedule: Q04DX003 (ip), vehicle: Klucel (hydroxypropylcellulose) (HPC)).

Regarding `O=C(O)CCc1ccc([N+](=O)[O-])cc1Cl`, the T/C by setting is: under setting [4], 96 % of control; under setting [5], 101 % of control; under setting [6], 101 % of control.

With `OC(Cc1cnc2ccccc2n1)C(Cl)(Cl)Cl` (stereo not given), the T/C is 102 % of control under setting [7]; 90 % of control under setting [4]; 97 % of control under setting [8]; 95 % of control under setting [5]; 94 % of control under setting [9]; 108 % of control under setting [6].

On to `O=C1CC2(CCN(Cc3ccccc3)CC2)C(=O)N1N1CCCC1`, for which the T/C by setting is: (dose: 100.0 mg/kg/injection, schedule: Q01DX001 (ip), vehicle: Klucel (hydroxypropylcellulose) (HPC)) 91 % of control; (dose: 200.0 mg/kg/injection, schedule: Q01DX001 (ip), vehicle: Klucel (hydroxypropylcellulose) (HPC)) 88 % of control; (dose: 400.0 mg/kg/injection, schedule: Q01DX001 (ip), vehicle: Klucel (hydroxypropylcellulose) (HPC)) 89 % of control.

With `O=C(O)C1CCCN1` (stereo not given), the T/C reads like this: under setting [1], 100 % of control; under setting [2], 87 % of control; under setting [3], 97 % of control.

Take `Cc1ccc(NC(=O)SCc2ccccc2)c([N+](=O)[O-])c1`: the T/C under setting [10] is 98 % of control, the T/C under setting [11] was 100 % of control and the T/C under setting [12] is 93 % of control.

On to `Cc1c2oc3c(C)ccc(C(=O)NC4C(=O)NC(C(C)C)C(=O)N5CCCCC5C(=O)N(C)CC(=O)N(C)C(C(C)C)C(=O)OC4C)c3nc-2c(C(=O)NC2C(=O)NC(C(C)C)C(=O)N3CCCCC3C(=O)N(C)CC(=O)N(C)C(C(C)C)C(=O)OC2C)c(N)c1=O` (stereo not given) (I: TV[Pip][Sar][NMeV] / II: TV[Pip][Sar][NMeV]; ester I:1-I:C, II:1-II:C; linker I:N-II:N via Actinocin(9to1); configuration not given here), for which the T/C is 105 % of control (dose: 0.5 mg/kg/injection, schedule: Q01DX001 (ip), vehicle: saline); 123 % of control (dose: 0.5 mg/kg/injection, schedule: Q01DX009 (ip), vehicle: water); 102 % of control (dose: 1.0 mg/kg/injection, schedule: Q01DX001 (ip), vehicle: saline); 104 % of control (dose: 1.0 mg/kg/injection, schedule: Q01DX009 (ip), vehicle: water); 116 % of control (dose: 1.8 mg/kg/injection, schedule: Q01DX001 (ip), vehicle: saline); 112 % of control (dose: 2.0 mg/kg/injection, schedule: Q01DX001 (ip), vehicle: saline). Further, the T/C reads like this: (dose: 2.6 mg/kg/injection, schedule: Q01DX001 (ip), vehicle: saline) 109 % of control; (dose: 6.0 mg/kg/injection, schedule: Q01DX001 (ip), vehicle: saline) 103 % of control.

Consider `ClC1OCCOC1Cl` (stereo not given), for which the T/C by setting is: (dose: 50.0 mg/kg/injection, schedule: Q01DX009 (ip), vehicle: saline) 102 % of control; (dose: 100.0 mg/kg/injection, schedule: Q01DX009 (ip), vehicle: saline) 91 % of control; under setting [13], 92 % of control; (dose: 200.0 mg/kg/injection, schedule: Q01DX009 (ip), vehicle: saline) 100 % of control.

For the compound `CCOC(=O)C1NC(=O)N(c2ccccc2)C1=O` (stereo not given), the T/C reads like this: under setting [13], 103 % of control; (dose: 200.0 mg/kg/injection, schedule: Q04DX003 (ip), vehicle: saline) 108 % of control; (dose: 400.0 mg/kg/injection, schedule: Q04DX003 (ip), vehicle: saline) 104 % of control.

Regarding `CCOc1ccc(NC(=O)c2cccc(C(=O)Nc3ccc(OCC)cc3)c2)cc1`, the T/C is 104 % of control under setting [10]; 91 % of control under setting [4]; 101 % of control under setting [11]; 98 % of control under setting [5]; 95 % of control under setting [12]; 93 % of control under setting [6].

As to `CCC1(C)CCC2C(=CCC3C(C)(C(=O)O)CCCC23C)C1` (stereo not given), the T/C under setting [7] is 91 % of control, the T/C under setting [8] was 93 % of control and the T/C under setting [9] was 86 % of control.

Regarding `COc1cccc(OC)c1OC(=O)Nc1ccccc1F`, the T/C reads like this: under setting [10], 105 % of control; under setting [11], 106 % of control; under setting [12], 106 % of control.

The record behind these values is PubChem BioAssay AID248 (DTP/NCI, 2004).
